From ChEMBL document CHEMBL1129347, “Topographical amino acid substitution in position 10 of glucagon leads to antagonists/partial agonists with greater binding differences” (J Med Chem, 1996)

The molecules below were run against Glucagon receptor (Rattus norvegicus, UniProt P30082) (assay: Inhibition of [125I]glucagon binding towards Glucagon receptor).
Sequence of Glucagon receptor (P30082 whole entry): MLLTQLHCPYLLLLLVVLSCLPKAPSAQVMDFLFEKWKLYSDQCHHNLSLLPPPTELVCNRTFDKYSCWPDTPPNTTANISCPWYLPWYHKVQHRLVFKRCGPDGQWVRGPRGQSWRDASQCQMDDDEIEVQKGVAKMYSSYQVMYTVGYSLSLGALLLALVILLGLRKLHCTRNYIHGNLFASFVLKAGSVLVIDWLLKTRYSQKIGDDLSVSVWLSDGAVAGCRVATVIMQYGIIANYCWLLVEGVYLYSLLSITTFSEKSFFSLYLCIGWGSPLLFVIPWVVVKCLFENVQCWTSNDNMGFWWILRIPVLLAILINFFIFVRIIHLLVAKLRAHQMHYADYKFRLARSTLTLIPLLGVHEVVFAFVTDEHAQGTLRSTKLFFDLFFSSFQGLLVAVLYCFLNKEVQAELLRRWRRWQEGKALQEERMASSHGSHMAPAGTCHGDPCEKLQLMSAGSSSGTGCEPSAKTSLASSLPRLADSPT

Point of comparison: `CSCC[C@H](NC(=O)[C@H](CC(C)C)NC(=O)[C@H](Cc1c[nH]c2ccccc12)NC(=O)[C@H](CCC(N)=O)NC(=O)[C@@H](NC(=O)[C@H](Cc1ccccc1)NC(=O)[C@H](CC(=O)O)NC(=O)[C@H](CCC(N)=O)NC(=O)[C@H](C)NC(=O)[C@H](CCCN=C(N)N)NC(=O)[C@H](CCCN=C(N)N)NC(=O)[C@H](CO)NC(=O)[C@H](CC(=O)O)NC(=O)[C@H](CC(C)C)NC(=O)[C@H](Cc1ccc(O)cc1)NC(=O)[C@H](CCCCN)NC(=O)[C@H](CO)NC(=O)[C@H](Cc1ccc(O)cc1)NC(=O)[C@H](CCC(=O)O)NC(=O)[C@H](CO)NC(=O)[C@@H](NC(=O)[C@H](Cc1ccccc1)NC(=O)[C@H](Cc1ccc(O)cc1)NC(=O)CNC(=O)[C@H](CCC(N)=O)NC(=O)[C@@H](N)CO)[C@@H](C)O)C(C)C)C(=O)N[C@@H](CC(N)=O)C(=O)N[C@H](C(N)=O)[C@@H](C)O`, IC50 2.3 nM. Against it:
- CSCC[C@H](NC(=O)[C@H](CC(C)C)NC(=O)[C@H](Cc1c[nH]c2ccccc12)NC(=O)[C@H](CCC(N)=O)NC(=O)[C@@H](NC(=O)[C@H](Cc1ccccc1)NC(=O)[C@H](CC(=O)O)NC(=O)[C@H](CCC(N)=O)NC(=O)[C@H](C)NC(=O)[C@H](CCCNC(=N)N)NC(=O)[C@H](CCCNC(=N)N)NC(=O)[C@H](CO)NC(=O)[C@H](CC(=O)O)NC(=O)[C@H](CC(C)C)NC(=O)[C@H](Cc1ccc(O)cc1)NC(=O)[C@H](CCCCN)NC(=O)[C@H](CO)NC(=O)[C@H](Cc1ccccc1)NC(=O)[C@H](CCC(=O)O)NC(=O)[C@H](CO)NC(=O)[C@@H](NC(=O)[C@H](Cc1ccccc1)NC(=O)[C@H](Cc1ccc(O)cc1)NC(=O)CNC(=O)[C@H](CCC(N)=O)NC(=O)[C@@H](N)CO)[C@@H](C)O)C(C)C)C(=O)N[C@@H](CC(N)=O)C(=O)N[C@H](C(N)=O)[C@@H](C)O — 1.8-fold higher, 4.1 nM
- CSCC[C@H](NC(=O)[C@H](CC(C)C)NC(=O)[C@H](Cc1c[nH]c2ccccc12)NC(=O)[C@H](CCC(N)=O)NC(=O)[C@@H](NC(=O)[C@H](Cc1ccccc1)NC(=O)[C@H](CC(=O)O)NC(=O)[C@H](CCC(N)=O)NC(=O)[C@H](C)NC(=O)[C@H](CCCNC(=N)N)NC(=O)[C@H](CCCNC(=N)N)NC(=O)[C@H](CO)NC(=O)[C@H](CC(=O)O)NC(=O)[C@H](CC(C)C)NC(=O)[C@H](Cc1ccc(O)cc1)NC(=O)[C@H](CCCCN)NC(=O)[C@H](CO)NC(=O)[C@@H](Cc1ccccc1)NC(=O)[C@H](CCC(=O)O)NC(=O)[C@H](CO)NC(=O)[C@@H](NC(=O)[C@H](Cc1ccccc1)NC(=O)[C@H](Cc1ccc(O)cc1)NC(=O)CNC(=O)[C@H](CCC(N)=O)NC(=O)[C@@H](N)CO)[C@@H](C)O)C(C)C)C(=O)N[C@@H](CC(N)=O)C(=O)N[C@H](C(N)=O)[C@@H](C)O — 15-fold higher, 34.5 nM
- CSCC[C@H](NC(=O)[C@H](CC(C)C)NC(=O)[C@H](Cc1c[nH]c2ccccc12)NC(=O)[C@H](CCC(N)=O)NC(=O)[C@@H](NC(=O)[C@H](Cc1ccccc1)NC(=O)[C@H](CC(=O)O)NC(=O)[C@H](CCC(N)=O)NC(=O)C(C)NC(=O)[C@H](CCCN=C(N)N)NC(=O)[C@H](CCCN=C(N)N)NC(=O)[C@H](CO)NC(=O)[C@H](CC(=O)O)NC(=O)[C@H](CC(C)C)NC(=O)[C@H](Cc1ccc(O)cc1)NC(=O)[C@H](CCCCN)NC(=O)[C@H](CO)NC(=O)C(C)NC(=O)[C@H](CCC(=O)O)NC(=O)[C@H](CO)NC(=O)[C@@H](NC(=O)[C@H](Cc1ccccc1)NC(=O)[C@H](Cc1ccc(O)cc1)NC(=O)CNC(=O)[C@H](CCC(N)=O)NC(=O)[C@@H](N)CO)[C@@H](C)O)C(C)C)C(=O)N[C@@H](CC(N)=O)C(=O)N[C@H](C(N)=O)[C@@H](C)O (stereo in doubt) — 220-fold higher, 510 nM
- CSCC[C@H](NC(=O)[C@H](CC(C)C)NC(=O)[C@H](Cc1c[nH]c2ccccc12)NC(=O)[C@H](CCC(N)=O)NC(=O)[C@@H](NC(=O)[C@H](Cc1ccccc1)NC(=O)[C@H](CC(=O)O)NC(=O)[C@H](CCC(N)=O)NC(=O)[C@H](C)NC(=O)[C@H](CCCN=C(N)N)NC(=O)[C@H](CCCN=C(N)N)NC(=O)[C@H](CO)NC(=O)[C@H](CC(=O)O)NC(=O)[C@H](CC(C)C)NC(=O)[C@H](Cc1ccc(O)cc1)NC(=O)[C@H](CCCCN)NC(=O)[C@H](CO)NC(=O)[C@@H](NC(=O)[C@H](CCC(=O)O)NC(=O)[C@H](CO)NC(=O)[C@@H](NC(=O)[C@H](Cc1ccccc1)NC(=O)[C@H](Cc1ccc(O)cc1)NC(=O)CNC(=O)[C@H](CCC(N)=O)NC(=O)[C@@H](N)CO)[C@@H](C)O)[C@H](C)c1ccccc1)C(C)C)C(=O)N[C@@H](CC(N)=O)C(=O)N[C@H](C(N)=O)[C@@H](C)O — 4.3-fold higher, 10 nM
- CSCC[C@H](NC(=O)[C@H](CC(C)C)NC(=O)[C@H](Cc1c[nH]c2ccccc12)NC(=O)[C@H](CCC(N)=O)NC(=O)[C@@H](NC(=O)[C@H](Cc1ccccc1)NC(=O)[C@H](CC(=O)O)NC(=O)[C@H](CCC(N)=O)NC(=O)[C@H](C)NC(=O)[C@H](CCCNC(=N)N)NC(=O)[C@H](CCCNC(=N)N)NC(=O)[C@H](CO)NC(=O)[C@H](CC(=O)O)NC(=O)[C@H](CC(C)C)NC(=O)[C@H](Cc1ccc(O)cc1)NC(=O)[C@H](CCCCN)NC(=O)[C@H](CO)NC(=O)[C@H](C)NC(=O)[C@H](CCC(=O)O)NC(=O)[C@H](CO)NC(=O)[C@@H](NC(=O)[C@H](Cc1ccccc1)NC(=O)[C@H](Cc1ccc(O)cc1)NC(=O)CNC(=O)[C@H](CCC(N)=O)NC(=O)[C@@H](N)CO)[C@@H](C)O)C(C)C)C(=O)N[C@@H](CC(N)=O)C(=O)N[C@H](C(N)=O)[C@@H](C)O — 170-fold higher, 395 nM
- CSCC[C@H](NC(=O)[C@H](CC(C)C)NC(=O)[C@H](Cc1c[nH]c2ccccc12)NC(=O)[C@H](CCC(N)=O)NC(=O)[C@@H](NC(=O)[C@H](Cc1ccccc1)NC(=O)[C@H](CC(=O)O)NC(=O)[C@H](CCC(N)=O)NC(=O)[C@H](C)NC(=O)[C@H](CCCN=C(N)N)NC(=O)[C@H](CCCN=C(N)N)NC(=O)[C@H](CO)NC(=O)[C@H](CC(=O)O)NC(=O)[C@H](CC(C)C)NC(=O)[C@H](Cc1ccc(O)cc1)NC(=O)[C@H](CCCCN)NC(=O)[C@H](CO)NC(=O)[C@@H](Cc1ccc(O)cc1)NC(=O)[C@H](CCC(=O)O)NC(=O)[C@H](CO)NC(=O)[C@@H](NC(=O)[C@H](Cc1ccccc1)NC(=O)[C@H](Cc1ccc(O)cc1)NC(=O)CNC(=O)[C@H](CCC(N)=O)NC(=O)[C@@H](N)CO)[C@@H](C)O)C(C)C)C(=O)N[C@@H](CC(N)=O)C(=O)N[C@H](C(N)=O)[C@@H](C)O — 32-fold higher, 74 nM
